Test results: patent EP4574818A1, “ONIUM SALT OF NITROGEN-CONTAINING HETEROARYL COMPOUND AND PEST CONTROL AGENT” (priority 2022, dated 2024)

Columns and labels:
Type in all cases: in vivo
Mythimna separata = test: Efficacy test against Mythimna separata (treated artificial feed); conditions: 1 µl of emulsion (I) (5% by mass active ingredient) mixed with 0.8 g artificial feed; second-instar larvae; 25°C; after five days
Procedure: (§1) 5 parts by mass of a compound of the present invention, 93.6 parts by mass of dimethylformamide, and 1.4 parts by mass of polyoxyethylene alkyl aryl ether were mixed and dissolved to obtain an emulsion (I) containing 5% by mass of the active ingredient.
0.8 g of commercially-available artificial feed (Insect LFS, manufactured by Nosan Corporation) and 1 µl of the emulsion (I) were mixed well, and then 0.2 g of the mixture per treated area was packed into plastic test containers (each having a capacity of 1.4 ml) as test feeds.
Two second-instar larvae of Mythimna separata were left per treated area, and then the test containers were sealed with plastic covers. The test containers were placed in a thermostatic chamber at 25°C, and, after five days had passed therefrom, the mortality and the feed intake were measured. The test was repeated twice.
In addition, the test was carried out under the same conditions as described above, except that the emulsion (II) was used instead of the emulsion (I), and evaluated as a solvent control area.

Spodoptera litura = test: Efficacy test against Spodoptera litura (cabbage leaf immersion); conditions: 144 h, 125 ppm by mass, cabbage leaf immersed 30 seconds, second-instar larvae, 25°C, humidity 60%, after six days, read-out: mortality of Spodoptera litura
Procedure: A cabbage leaf was immersed in the diluted solution for 30 seconds. The cabbage leaf was air-dried and then put in a petri dish, followed by leaving five second-instar larvae of Spodoptera litura therein. The petri dish was placed in a thermostatic chamber at a temperature of 25°C and a humidity of 60%. After six days had passed from leaving the larvae, life or death was assessed and the mortality was calculated. The test was repeated twice.

Plutella xylostella = test: Efficacy test against Plutella xylostella (cabbage leaf immersion); conditions: 72 h; 125 ppm by mass; cabbage leaf immersed 30 seconds; second-instar larvae of Plutella xylostella; 25°C, humidity 60%; after three days; read-out: mortality
Procedure: The emulsion (II) was diluted with water at the same dilution ratio as the diluted solution (I), thereby obtaining a diluted solution (II). A cabbage leaf was immersed in each of the diluted solutions for 30 seconds. Each cabbage leaf after immersion was air-dried and then put in a petri dish, followed by leaving five second-instar larvae of Plutella xylostella therein. The petri dishes were placed in a thermostatic chamber at a temperature of 25°C and a humidity of 60%. After three days had passed from leaving the larvae, life or death was assessed and the mortality was calculated. The test was repeated twice.

Phyllotreta striolata = test: Efficacy test against Phyllotreta striolata (sprayed bok-choy seedling); conditions: 168 h, 125 ppm by mass, sprayed to bok-choy seedling, adults, 25°C, humidity 65%, after seven days, read-out: mortality against the adults of Phyllotreta striolata
Procedure: as §1
The emulsion (I) was diluted with water such that the concentration of the compound of the present invention became 125 ppm by mass. The diluted solution was sprayed to a bok-choy seedling (at the 7th leafe stage) planted in a 3-sun pot. After air-dried, the bok-choy seedling was placed in a plastic cup, and ten adults of Phyllotreta striolata were left therein. The plastic cup was placed in a thermostatic chamber at a temperature of 25°C and a humidity of 65%. After seven days had passed from leaving the adults, life or death was assessed and the mortality was calculated. The test was repeated twice.

Ctenocephalides felis = test: Efficacy test against Ctenocephalides felis (thin film in glass vial); conditions: 96 h, 100 µL of 16 ppm by mass isopropanol solution dried as thin film in glass vial, adults, 25°C, after four days
Procedure: The compound of the present invention was dissolved in isopropanol to prepare a drug solution having a concentration of 16 ppm by mass. 100 µL of the drug solution was coated on the inner surface of the bottom of a glass vial container (φ […]), and then isopropanol was vaporized by air-drying to form a thin film of the compound of the present invention. In the vial container, four adults (a mixture of males and females) of cat flea (Ctenocephalides felis) were left. The lid was put on the vial container, and the vial container was placed in a thermostatic chamber at 25°C. After four days had passed from leaving the adults, life or death of Ctenocephalides felis was assessed and the mortality was calculated.

[1] = tested on: Haemophysalis longicornis; test: Efficacy test against Haemophysalis longicornis (thin film in glass test tube); conditions: 100 µL of 16 ppm by mass isopropanol solution dried as thin film in glass test tube; nymphs; 25°C; after four days; 5760 min
Procedure: The compound of the present invention was dissolved in isopropanol to prepare a drug solution having a concentration of 16 ppm by mass. 100 µL of the drug solution was coated on the inner surface of the bottom of a glass test tube (φ 12 mm), and then isopropanol was vaporized by air-drying to form a thin film of the compound of the present invention. In the test tube, four nymphs of Haemophysalis longicornis were left. The lid was put on the test tube, and the test tube was placed in a thermostatic chamber at 25°C. After four days had passed from leaving the nymphs, life or death of Haemophysalis longicornis was assessed and the mortality was calculated.

With O=C([N-][n+]1cccc(F)c1)c1cc(Cl)nc(Oc2ccc(OC(F)(F)F)cc2)c1 [Compound 1] the “mortality of Mythimna separata or feed intake relative to the feed intake at the solvent control area” value (Mythimna separata) was 100% mortality of Mythimna separata or 10% or less of the feed intake, the mortality at 125 ppm (Spodoptera litura) was at least 80% and the mortality at 125 ppm (Plutella xylostella) was at least 80%. It also gave a mortality at 125 ppm (Phyllotreta striolata) of at least 80% and a mortality at 16 ppm (Ctenocephalides felis) of at least 80%.

For O=C([N-][n+]1ccccc1)c1cc(Cl)nc(Oc2ccc(OC(F)(F)C(F)(F)F)cc2)c1 [Compound 3], the “mortality of Mythimna separata or feed intake relative to the feed intake at the solvent control area” value (Mythimna separata) was 100% mortality of Mythimna separata or 10% or less of the feed intake, the mortality at 125 ppm (Spodoptera litura) was at least 80% and the mortality at 125 ppm (Plutella xylostella) was at least 80%. The mortality at 125 ppm (Phyllotreta striolata) was at least 80%.

In the case of O=C([N-][n+]1cccc(F)c1)c1cc(Cl)nc(Oc2ccc(OC(F)(F)C(F)(F)F)cc2)c1 [Compound 7], the mortality at 125 ppm (Spodoptera litura) is reported as at least 80%, the mortality at 125 ppm (Plutella xylostella) is reported as at least 80% and the mortality at 16 ppm (Ctenocephalides felis) is reported as at least 80%.

For CCn1c[n+]([N-]C(=O)c2cc(Cl)nc(Oc3ccc(OC(F)(F)C(F)(F)F)cc3)c2)cn1 [Compound 10], the mortality at 125 ppm (Spodoptera litura) was at least 80%, the mortality at 125 ppm (Plutella xylostella) was at least 80% and the mortality at 125 ppm (Phyllotreta striolata) was at least 80%. For the same compound, the mortality at 16 ppm (Ctenocephalides felis) was at least 80%.

O=C([N-][n+]1ccccc1)c1cc(Cl)nc(Oc2ccc(OC(F)(F)F)cc2)c1 [Compound 175, (2-chloro-6-(4-(trifluoromethoxy)phenoxy)isonicotinoyl)(pyridin-1-ium-1-yl)amide] was tested, and the “mortality of Mythimna separata or feed intake relative to the feed intake at the solvent control area” value (Mythimna separata) was 100% mortality of Mythimna separata or 10% or less of the feed intake, the mortality at 125 ppm (Spodoptera litura) was at least 80% and the mortality at 125 ppm (Plutella xylostella) was at least 80%. For the same compound, the mortality at 125 ppm (Phyllotreta striolata) was at least 80%, the mortality at 16 ppm (Ctenocephalides felis) was at least 80% and the “mortality against Haemophysalis longicornis” value [1] was at least 80%.

With O=C([N-][n+]1ccccc1)c1cc(Cl)nc(Oc2ccc(C3CC3(Cl)Cl)cc2)c1 (stereo not drawn) [Compound 211] the “mortality of Mythimna separata or feed intake relative to the feed intake at the solvent control area” value (Mythimna separata) was 100% mortality of Mythimna separata or 10% or less of the feed intake and the mortality at 125 ppm (Phyllotreta striolata) was at least 80%.

O=C([N-][n+]1ccccc1)c1cc(I)nc(Oc2ccc(OC(F)(F)C(F)(F)F)cc2)c1 [Compound 219, (2-iodo-6-(4-(perfluoroethoxy)phenoxy)isonicotinoyl)(pyridin-1-ium-1-yl)amide] showed a mortality at 125 ppm (Spodoptera litura) of at least 80%, a mortality at 125 ppm (Plutella xylostella) of at least 80% and a mortality at 125 ppm (Phyllotreta striolata) of at least 80%.
